Source: patent US20230145835A1, “Modulators of Alpha-4-beta-7 Integrin and MAdCAM” (48HD Biopharma Inc., priority 2021, published 2023)
Numbered stars: 1 amine (or outer) side, 2 acyl side, 3 side chain; on linkers, the order of the positions; unused ones are H or OH. Bridge positions count the residues as written; N and C are the ends. Square brackets hold non-standard residues; d marks the D form. Peptide text beside a SMILES is read from it. X8 = O=C(/C=N/O/C=C/CCCCOc1cc(C[*:2])cc(C[*:3])c1)[*:1]; X3 = O=C(/C=N/OCCCCCCOc1cc(C[*:2])cc(C[*:3])c1)[*:1]; X5 = O=C(CCCCCCOc1cc(C[*:2])cc(C[*:3])c1)[*:1]; tBuAla = CC(C)(C)C[C@H](N)C(=O)O; hSer = N[C@@H](CCO)C(=O)O; Nle = CCCC[C@H](N)C(=O)O

Target: T1, rh-integrin α4β7/LPAM-1 (Homo sapiens, UniProt P13612+P26010)
T1 sequence (P13612 34-977 limits assumed): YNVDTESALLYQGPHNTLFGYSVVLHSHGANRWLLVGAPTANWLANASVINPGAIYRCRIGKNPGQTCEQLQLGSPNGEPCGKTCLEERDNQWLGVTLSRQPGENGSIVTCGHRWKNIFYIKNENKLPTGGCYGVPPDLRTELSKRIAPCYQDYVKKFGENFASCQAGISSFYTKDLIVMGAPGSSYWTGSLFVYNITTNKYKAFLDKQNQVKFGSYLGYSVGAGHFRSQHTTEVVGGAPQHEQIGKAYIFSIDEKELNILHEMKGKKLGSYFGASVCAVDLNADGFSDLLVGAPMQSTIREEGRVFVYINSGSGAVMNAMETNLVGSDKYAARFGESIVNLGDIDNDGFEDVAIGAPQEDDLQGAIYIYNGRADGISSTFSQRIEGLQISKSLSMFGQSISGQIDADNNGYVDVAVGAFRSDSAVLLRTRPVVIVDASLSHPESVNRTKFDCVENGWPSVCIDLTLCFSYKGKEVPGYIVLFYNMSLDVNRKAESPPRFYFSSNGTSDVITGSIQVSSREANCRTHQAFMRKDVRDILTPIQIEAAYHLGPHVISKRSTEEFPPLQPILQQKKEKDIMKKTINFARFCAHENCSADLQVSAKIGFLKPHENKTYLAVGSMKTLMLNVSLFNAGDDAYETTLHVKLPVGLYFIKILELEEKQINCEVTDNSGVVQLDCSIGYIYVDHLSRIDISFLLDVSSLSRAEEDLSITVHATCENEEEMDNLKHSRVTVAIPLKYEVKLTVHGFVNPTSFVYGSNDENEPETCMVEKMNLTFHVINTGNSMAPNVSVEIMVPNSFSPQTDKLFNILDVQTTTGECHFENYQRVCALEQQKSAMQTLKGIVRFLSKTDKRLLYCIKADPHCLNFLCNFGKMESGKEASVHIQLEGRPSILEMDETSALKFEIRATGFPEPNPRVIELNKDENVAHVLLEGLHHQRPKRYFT
T1 sequence (P26010 20-723 limits assumed): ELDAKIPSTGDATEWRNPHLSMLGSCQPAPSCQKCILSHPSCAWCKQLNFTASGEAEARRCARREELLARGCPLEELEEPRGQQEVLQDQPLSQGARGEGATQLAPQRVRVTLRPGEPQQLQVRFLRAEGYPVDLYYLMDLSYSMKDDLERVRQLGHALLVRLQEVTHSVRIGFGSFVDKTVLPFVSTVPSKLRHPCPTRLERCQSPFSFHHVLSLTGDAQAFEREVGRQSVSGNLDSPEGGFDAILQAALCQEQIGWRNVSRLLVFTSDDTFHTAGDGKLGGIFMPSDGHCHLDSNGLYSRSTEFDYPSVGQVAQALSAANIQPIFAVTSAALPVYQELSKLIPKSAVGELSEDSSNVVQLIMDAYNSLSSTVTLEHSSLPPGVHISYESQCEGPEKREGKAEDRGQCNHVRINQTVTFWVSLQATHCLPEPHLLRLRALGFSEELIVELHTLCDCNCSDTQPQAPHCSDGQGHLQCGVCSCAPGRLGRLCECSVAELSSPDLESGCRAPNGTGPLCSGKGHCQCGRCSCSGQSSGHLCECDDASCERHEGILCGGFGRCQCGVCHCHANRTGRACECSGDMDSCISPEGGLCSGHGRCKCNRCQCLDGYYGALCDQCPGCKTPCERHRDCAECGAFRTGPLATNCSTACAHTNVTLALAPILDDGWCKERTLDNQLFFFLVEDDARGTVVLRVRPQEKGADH
Experiment: α4β7-MadCAM Competition ELISA (Example 4)
Type: binding
Conditions: Table 3 Representative compounds; inhibition of MAdCAM binding to coated α4β7; read-out: IC50
Procedure: After washing with wash buffer, 200 μL assay buffer was added to each well and incubated for one hour at 28° C. After another wash with wash buffer, 100 μL of a MAdCAM and peptide mixture in assay buffer was added to each well and incubated for one hour at 28° C., followed by washing with wash buffer.

Compound	IC50 [µM]
CC(C)C[C@@H]1NC(=O)/C=N/OCCCCCCOc2cc3cc(c2)CSC[C@H](NC1=O)C(=O)N[C@@H](Cc1ccc(O)cc1)C(=O)N1CCC[C@H]1C(=O)N[C@@H](CC(=O)O)C(=O)N[C@@H]([C@@H](C)O)C(=O)N[C@@H](Cc1ccc(O)cc1)C(=O)N[C@@H](Cc1cnc[nH]1)C(=O)N[C@H](C(N)=O)CSC3 [compound 73, TSL6- SLCYPDTYHC] (LCYPDTYHC-NH2; linker N-2-9 via X3)	30.6
CC(C)C[C@H]1NC(=O)[C@@H]2CCCN2C(=O)[C@@H]2CSCc3cc(cc(c3)OCCCCCCO/N=C/C(=O)N[C@@H](C)C(=O)N2)CSC[C@@H](C(N)=O)NC(=O)[C@H](CO)NC(=O)[C@@H]2CCCN2C(=O)[C@H](C(C)C)NC(=O)[C@H](CC(=O)O)NC1=O [compound 74, TSL6- SACPLDVPSC] (ACP[dL]DVPSC-NH2; linker N-2-9 via X3)	31
CSCC[C@@H]1NC(=O)[C@@H]2CCCN2C(=O)[C@@H]2CSCc3cc(cc(c3)OCCCCCCO/N=C/C(=O)N[C@@H](C)C(=O)N2)CSC[C@@H](C(N)=O)NC(=O)[C@H](CCC(=O)O)NC(=O)CNC(=O)[C@H](Cc2c[nH]c3ccccc23)NC(=O)[C@H](C(C)C)NC(=O)[C@H](CC(=O)O)NC1=O [compound 75, TSL6- SACPMDVWGEC] (ACPMDVWGEC-NH2; linker N-2-10 via X3)	31.3
CCCC[C@@H]1NC(=O)[C@H](CO)NC(=O)[C@@H]2CSSC[C@@H](C(=O)N[C@@H](Cc3c[nH]c4ccccc34)C(=O)N[C@@H](CCC(N)=O)C(N)=O)NC(=O)[C@H](CC(C)C)NC(=O)[C@@H]([C@H](C)O)NC(=O)[C@H](CC(=O)O)NC(=O)[C@H](CO)NC(=O)[C@H](CCCNC(=N)N)NC(=O)[C@H](CSCC(=O)N[C@@H](CCCNC(=N)N)C(=O)N2)NC(=O)[C@H](CC(C)C)NC(=O)[C@H](CC(=O)O)NC1=O [compound 76, Disulfide- RCS{Nle}DICRS DTLCWQ] ({CH2CO}-RCS[Nle]DLCRSD[dT]LCWQ-NH2; disulfide 2-13; thioether N-7)	34.3
CC(C)[C@@H]1NC(=O)[C@H](CCCCN)NC(=O)[C@@H]2CCCN2C(=O)[C@@H]2CCCN2C(=O)[C@H](CC(=O)O)NC(=O)[C@H](Cc2cnc[nH]2)NC(=O)[C@@H]2CSCc3cc(cc(c3)OCCCCCCO/N=C/C(=O)N[C@@H](CO)C(=O)N2)CSC[C@@H](C(N)=O)NC1=O [compound 77, TSL6- SKCPADVPSC] (SCHDPPKVC-NH2; linker N-2-9 via X3)	41.1
CC[C@H](C)[C@@H]1NC(=O)[C@H](CC(=O)O)NC(=O)[C@H](C)NC(=O)[C@@H]2CCCN2C(=O)[C@@H]2CSCc3cc(cc(c3)OCCCCCCO/N=C/C(=O)N[C@@H](CCC(N)=O)C(=O)N2)CSC[C@@H](C(N)=O)NC(=O)[C@H]([C@@H](C)O)NC(=O)[C@@H]2CCCN2C1=O [compound 78, TSL6- SQCPADIPTC] (QCPADIPTC-NH2; linker N-2-9 via X3)	43.7
C[C@@H](O)[C@@H]1NC(=O)[C@H](CC(=O)O)NC(=O)[C@@H]2CCCN2C(=O)[C@H](Cc2ccc(O)cc2)NC(=O)[C@@H]2CSCc3cc(cc(c3)OCCCCCCO/N=C/C(=O)N[C@@H](CC(=O)O)C(=O)N2)CSC[C@@H](C(N)=O)NC(=O)[C@H](Cc2cnc[nH]2)NC(=O)[C@H](Cc2ccccc2)NC1=O [compound 79, TSL6- SDCYPDTFHC] (DCYPDTFHC-NH2; linker N-2-9 via X3)	53.5
COCC[C@@H]1NC(=O)[C@@H]2CCCN2C(=O)[C@@H]2CSCc3cc(cc(c3)OCCCCCCC(=O)NCC(=O)N[C@@H](CCCNC(=N)N)C(=O)N2)CSC[C@@H](C(N)=O)NC(=O)[C@H](CCC(=O)O)NC(=O)[C@H](CCC(N)=O)NC(=O)[C@@H]2CCCN2C(=O)[C@H](CC(C)(C)C)NC(=O)[C@H](CC(=O)O)NC1=O [compound 80, TSLC7-GQCP{Hse(OMe)} D{tBuAla}PQEC] (GRCP[hSer](Me)D[tBuAla]PQEC-NH2; linker N-3-11 via X5)	55.9
CC(C)C[C@@H]1NC(=O)[C@@H]2CCCN2C(=O)[C@@H]2CSCc3cc(cc(c3)OCCCCCCO/N=C/C(=O)N[C@@H](CCCCN)C(=O)N2)CSC[C@@H](C(N)=O)NC(=O)[C@H](CO)NC(=O)[C@@H]2CCCN2C(=O)[C@H](C(C)C)NC(=O)[C@H](C)NC1=O [compound 81, TSL6- SKCPLAVPSC] (KCPLAVPSC-NH2; linker N-2-9 via X3)	55.9
CSCC[C@@H]1NC(=O)[C@@H]2CSCc3cc(cc(c3)OCCCCCCO/N=C/C(=O)NCC(=O)N2)CSC[C@@H](C(N)=O)NC(=O)[C@H](Cc2ccccc2)NC(=O)[C@H](C)NC(=O)[C@H](Cc2ccccc2)NC(=O)[C@H](CC(=O)O)NC(=O)[C@H](CC(=O)O)NC1=O [compound 82, TSL6- SGCMDDFAFC] (GCMDDFAFC-NH2; linker N-2-9 via X3)	59.1
CC[C@H](C)[C@@H]1NC(=O)[C@H](CCCNC(=N)N)NC(=O)CNC(=O)[C@H](Cc2ccc(O)cc2)NC(=O)[C@H](Cc2c[nH]c3ccccc23)NC(=O)[C@H](Cc2c[nH]cn2)NC(=O)[C@@H]2CSCc3cc(cc(c3)OCCCCCCO/N=C/C(=O)N[C@@H](CC(N)=O)C(=O)N2)CSC[C@@H](C(N)=O)NC1=O [compound 83, TSL6- SNCHWYGRIC] (NCHWYGRIC-NH2; linker N-2-9 via X3)	63.8
C[C@@H](O)[C@@H]1NC(=O)[C@H](CC(=O)O)NC(=O)[C@@H]2CCCN2C(=O)[C@H](Cc2ccccc2)NC(=O)[C@@H]2CSCc3cc(cc(c3)OCCCCCCO/N=C/C(=O)N[C@@H](CC(=O)O)C(=O)N2)CSC[C@@H](C(N)=O)NC(=O)[C@H](Cc2cnc[nH]2)NC(=O)[C@H](Cc2ccc(O)cc2)NC1=O [compound 84, TSL6- SDCFPDTYHC] (DCFPDTYHC-NH2; linker N-2-9 via X3)	65.7
CC[C@H](C)[C@@H]1NC(=O)[C@H](C(C)C)NC(=O)[C@H](CC(=O)O)NC(=O)[C@H](CC(C)C)NC(=O)[C@H](CCSC)NC(=O)[C@@H]2CSCc3cc(cc(c3)OCCCCCCO/N=C/C(=O)N[C@@H](C)C(=O)N2)CSC[C@@H](C(N)=O)NC(=O)[C@H](CO)NC1=O [compound 85, TSL6- SACMLDVISC] (ACMLDVISC-NH2; linker N-2-9 via X3)	66.6
CC(C)C[C@@H]1NC(=O)CNC(=O)[C@H](Cc2ccc(O)cc2)NC(=O)[C@H](CC(=O)O)NC(=O)[C@H](CO)NC(=O)[C@@H]2CSCc3cc(cc(c3)OCCCCCCO/N=C/C(=O)N[C@@H](C)C(=O)N2)CSC[C@@H](C(N)=O)NC(=O)[C@H](CCC(N)=O)NC1=O [compound 86, TSL6- SACSDTGLQC] (ACSDYGLQC-NH2; linker N-2-9 via X3)	70.7
C[C@@H](O)[C@@H]1NC(=O)[C@H](CC(=O)O)NC(=O)[C@@H]2CCCN2C(=O)[C@H](Cc2ccc(O)cc2)NC(=O)[C@@H]2CSCc3cc(cc(c3)OCCCCCCO/N=C/C(=O)N[C@@H](CC(=O)O)C(=O)N2)CSC[C@@H](C(N)=O)NC(=O)[C@H](Cc2cnc[nH]2)NC(=O)[C@H](Cc2ccc(O)cc2)NC1=O [compound 88, TSL6- SDCYPDTYHC] (DCYPDTYHC-NH2; linker N-2-9 via X3)	72.5
C[C@@H](O)[C@@H]1NC(=O)[C@H](CC(=O)O)NC(=O)[C@@H]2CCCN2C(=O)[C@H](Cc2ccc(O)cc2)NC(=O)[C@@H]2CSCc3cc(cc(c3)OCCCC/C=C/O/N=C/C(=O)N[C@@H](CC(N)=O)C(=O)N2)CSC[C@@H](C(N)=O)NC(=O)[C@H](Cc2cnc[nH]2)NC(=O)[C@H](Cc2ccc(O)cc2)NC1=O [compound 89, TSL6- SNCYPDTYHC] (NCYPDTYHC-NH2; linker N-2-9 via X8)	79.3
